Measured values taken from ChEMBL document CHEMBL3244041, “Synthesis and structure-activity relationships of 5H,11 H-[I]benzopyrano[4,3-g]benzopyran-9-carboxylic acids” (1977).

What was measured:
Rattus norvegicus [1] = assay: Antiallergic activity in adrenalectomized Sprague-Dawley rat assessed as inhibition of ovalbumin-induced passive cutaneous anaphylaxis reaction at 1 mg/kg, iv after 12 days by Evans blue staining; type: functional; conditions: 288 h
Rattus norvegicus [2] = assay: Antiallergic activity in iv dosed adrenalectomized Sprague-Dawley rat assessed as inhibition of ovalbumin-induced passive cutaneous anaphylaxis reaction after 12 days by Evans blue staining; type: functional; conditions: 288 h

Structure (SMILES) | inhibition in vivo at 1 mg/kg (Rattus norvegicus [1]) [%] | ED50 (Rattus norvegicus [2]) [mg/kg]
CC1(C)Oc2cc3oc(C(=O)O)cc(=O)c3cc2-c2ccc(N)cc21 | 77.8 | 
CC1(C)Oc2c(cc3c(=O)cc(C(=O)O)oc3c2[N+](=O)[O-])-c2ccccc21 | 20 | 
CC1(C)Oc2cc3oc(C(=O)O)cc(=O)c3cc2-c2cc(Cl)ccc21 | 25 | 
NCCO.O=C(O)c1cc(=O)c2cc3c(oc(=O)c4ccccc43)c(O)c2o1 | 55.6 | 2
CC1(C)Oc2cc3oc(C(=O)O)cc(=O)c3cc2-c2ccc(Cl)cc21 | 60 | 
COc1cccc2c1COc1cc3oc(C(=O)O)cc(=O)c3cc1-2 | 0 | 
CC1(C)Oc2cc3oc(C(=O)O)cc(=O)c3cc2-c2ccc(S(=O)(=O)O)cc21 | 0 | 
COc1cc2c(cc1Br)-c1cc3c(=O)cc(C(=O)O)oc3cc1OC2(C)C | 0 | 
CC1(C)Oc2cc3oc(C(=O)O)cc(=O)c3cc2-c2ccccc21.NCCO | 70.3 | 0.5
O=C([O-])c1cc(=O)c2c(OCC(O)COc3cccc4oc(C(=O)[O-])cc(=O)c34)cccc2o1.[Na+].[Na+] [CROMOLYN SODIUM] | 26.7 | 2.88
CC(=O)Oc1ccc2c(c1)C(C)(C)Oc1cc3oc(C(=O)O)cc(=O)c3cc1-2 | 73.4 | 
CC1(C)Oc2cc3oc(C(=O)O)cc(=O)c3c(O)c2-c2ccccc21 | 0 | 
O=C([O-])c1cc(=O)c2cc3c(cc2o1)OCc1ccccc1-3.[Na+] | 64.3 | 0.3
O=C(O)c1cc(=O)c2cc3c(c(O)c2o1)OCc1ccccc1-3 | 33.4 | 
COc1c2c(cc3c(=O)cc(C(=O)O)oc13)-c1ccccc1CO2 | 50 | 
COc1cc2c(cc1OC)C(C)(C)Oc1cc3oc(C(=O)O)cc(=O)c3cc1-2 | 67.7 | 
Cc1c2c(cc3oc(C(=O)O)cc(=O)c13)OC(C)(C)c1ccccc1-2 | 0 | 
CCCCC1(CCCC)Oc2cc3oc(C(=O)O)cc(=O)c3cc2-c2ccccc21 | 25 | 
CC1(C)Oc2c(cc3c(=O)cc(C(=O)O)oc3c2Cl)-c2ccccc21 | 66.7 | 
CCCOc1ccc2c(c1)C(C)(C)Oc1cc3oc(C(=O)O)cc(=O)c3cc1-2 | 40 | 
CC1(C)Oc2c(cc3c(=O)cc(C(=O)O)oc3c2N)-c2ccccc21 | 64.3 | 
CC1(C)Oc2cc3oc(C(=O)O)cc(=O)c3cc2-c2ccc(OCCO)cc21.NCCO | 82.8 | 0.11
CC1(C)Oc2cc3oc(C(=O)O)cc(=O)c3cc2-c2ccc([N+](=O)[O-])cc21 | 50 | 
CC1(C)Oc2cc3oc(C(=O)O)cc(=O)c3cc2-c2ccc(F)cc21.NCCO | 60 | 0.87
CC1(C)Oc2cc3oc(C(=O)[O-])cc(=O)c3cc2-c2ccc(O)cc21.[Na+] | 77.8 | 0.3
COc1ccc2c(c1)C(C)(C)Oc1cc3oc(C(=O)O)cc(=O)c3cc1-2 | 66.7 | 
